Results: patent publication US20110136829A1, “3-(N-HETEROCYCLYL)-PYRROLIDINYL-PHENYL-OXAZOLIDINONES AS ANTIBACTERIAL AGENTS” (FERRER INTERNACIONAL, S.A., priority 2008, published 2011)
Values after ≈ are worked out from the molar mass of the structure shown.

Experiments:
[1] = system: S. aureus ATCC25923 MS; experiment: MIC by standard micro dilution method (NCCLS M7-A5); format: cell-based; settings: Staphylococcus aureus, Mueller-Hinton medium (cation-adjusted), 16-24 h at 35° C., read-out: MIC, microorganism (1) S. aureus ATCC25923 MS
[2] = system: S. pneumoniae ATCC49619 PR; experiment: as above; format: cell-based; settings: Streptococcus pneumoniae, 20-24 h at 35° C., 5% CO2, read-out: MIC, microorganism (2) S. pneumoniae ATCC49619 PR
[3] = system: E. faecium ATCC51559 MDR; experiment: as above; format: cell-based; settings: Enterococcus faecium, Mueller-Hinton medium (cation-adjusted), 16-24 h at 35° C., read-out: MIC, microorganism (3) E. faecium ATCC51559 MDR
[4] = system: S. aureus LNZ-R 432; experiment: as above; format: cell-based; settings: Staphylococcus aureus, LNZR432; linezolid-resistant strain; Mueller-Hinton medium, 16-24 h at 35° C.; read-out: MIC, microorganism (4) S. aureus LNZ-R 432
[5] = system: H. influenzae ATCC49247; experiment: as above; format: cell-based; settings: Haemophilus influenzae, read-out: MIC, microorganism (6) H. influenzae ATCC49247
[6] = system: B. fragilis sp. fragilis ATCC25285; experiment: as above; format: cell-based; settings: Bacteroides fragilis, anaerobic strain, Brucella Blood medium supplemented, read-out: MIC, microorganism (7) B. fragilis sp. fragilis ATCC25285
[7] = system: M. catarrhalis HCI-78; experiment: as above; format: cell-based; settings: Moraxella catarrhalis, HCI78; 20-24 h at 35° C., 5% CO2; read-out: MIC, microorganism (8) M. catarrhalis HCI-78
[8] = system: E. faecium LNZ-R LR-4; experiment: as above; format: cell-based; settings: Enterococcus faecium; linezolid-resistant strain; Mueller-Hinton medium, 16-24 h at 35° C.; read-out: MIC, microorganism (9) E. faecium LNZ-R LR-4
[9] = system: S. haemolyticus; experiment: as above; format: cell-based; settings: Staphylococcus haemolyticus; Mueller-Hinton medium (cation-adjusted), 16-24 h at 35° C.; read-out: MIC, microorganism (5) S. haemolyticus
[10] = system: Moraxella, Pasteurella and Bacteroides spp.; settings: background art; cited from earlier work
[11] = system: other Gram-negative bacteria; settings: background art; cited from earlier work

| Compound | MIC [1] [µg/mL] | MIC [2] [µg/mL] | MIC [3] [µg/mL] | MIC [4] [µg/mL] | MIC [5] [µg/mL] | MIC [6] [µg/mL] | MIC [7] [µg/mL] | MIC [8] [µg/mL] | MIC [9] [µg/mL] | MICS for Moraxella, Pasteurella and Bacteroides spp. [10] [µg/mL] | susceptibility of other Gram-negative bacteria [11] |
| --- | --- | --- | --- | --- | --- | --- | --- | --- | --- | --- | --- |
| CC(=O)NC[C@H]1CN(c2ccc(N3CCC(n4cc(-c5ccncc5)cn4)C3)c(F)c2)C(=O)O1 (stereo partly drawn) [Ex. 18, N-((5S)-3-{3-fluoro-4-[3-(4-pyridin-4-yl-pyrazol-1-yl)pyrrolidin-1-yl]-phenyl}-2-oxo-5-oxazolidinylmethyl)acetamide] | 0.5 (≈ 1.08 µM) | 0.06 (≈ 0.129 µM) | 0.25 (≈ 0.538 µM) | 2 (≈ 4.31 µM) | 4 (≈ 8.61 µM) | 0.25 (≈ 0.538 µM) | 0.5 (≈ 1.08 µM) | 8 (≈ 17.2 µM) | – | – | – |
| CC(=O)NC[C@H]1CN(c2ccc(N3CCC(n4ccnn4)C3)c(F)c2)C(=O)O1 (stereo partly drawn) [Ex. 3, N-((5S)-3-{3-fluoro-4-[3-(1-triazolyl)pyrrolidin-1-yl]-phenyl}-2-oxo-5-oxazolidinylmethyl)acetamide] | 1 (≈ 2.57 µM) | 1 (≈ 2.57 µM) | 0.5 (≈ 1.29 µM) | 16 (≈ 41.2 µM) | 4 (≈ 10.3 µM) | 1 (≈ 2.57 µM) | 1 (≈ 2.57 µM) | 8 (≈ 20.6 µM) | 4 (≈ 10.3 µM) | – | – |
| CC(=O)NC[C@H]1CN(c2ccc(N3CCC(n4cc(-c5ccncn5)cn4)C3)c(F)c2)C(=O)O1 (stereo partly drawn) [Ex. 11, N-((5S)-3-{3-fluoro-4-[3-(4-pyrimidin-4-yl-pyrazol-1-yl)pyrrolidin-1-yl]-phenyl}-2-oxo-5-oxazolidinylmethyl)acetamide] | 0.5 (≈ 1.07 µM) | 0.125 (≈ 0.269 µM) | 0.25 (≈ 0.537 µM) | 2 (≈ 4.3 µM) | 4 (≈ 8.59 µM) | 0.5 (≈ 1.07 µM) | 0.5 (≈ 1.07 µM) | 8 (≈ 17.2 µM) | – | – | – |
| CC(=O)NC[C@H]1CN(c2ccc(N3CCC(n4cc(Br)cn4)C3)c(F)c2)C(=O)O1 (stereo partly drawn) [Ex. 17, N-((5S)-3-{3-fluoro-4-[3-(4-bromopyrazol-1-yl)pyrrolidin-1-yl]-phenyl}-2-oxo-5-oxazolidinylmethyl)acetamide] | 1 (≈ 2.14 µM) | 0.25 (≈ 0.536 µM) | 0.5 (≈ 1.07 µM) | 8 (≈ 17.2 µM) | 1 (≈ 2.14 µM) | 0.5 (≈ 1.07 µM) | 2 (≈ 4.29 µM) | 1 (≈ 2.14 µM) | 1 (≈ 2.14 µM) | – | – |
| CC(=O)NC[C@H]1CN(c2ccc(N3CCC(n4cc(-c5ccc([N+](=O)[O-])cc5)cn4)C3)c(F)c2)C(=O)O1 (stereo partly drawn) [Ex. 19, N-[(5S)-3-(3-fluoro-4-{3-[4-(4-nitrophenyl)-pyrazol-1-yl]pyrrolidin-1-yl}-phenyl)-2-oxo-5-oxazolidinylmethyl]acetamide] | 0.5 (≈ 0.983 µM) | 0.125 (≈ 0.246 µM) | 0.25 (≈ 0.492 µM) | 2 (≈ 3.93 µM) | 4 (≈ 7.87 µM) | 1 (≈ 1.97 µM) | 1 (≈ 1.97 µM) | 64 (≈ 126 µM) | – | – | – |
| CC(=O)NC[C@H]1CN(c2ccc(N3CCOCC3)c(F)c2)C(=O)O1 [Linezolid, N-[[(5S)-3-[3-fluoro-4-(4-morpholinyl)phenyl]-2-oxo-5-oxazolidinyl]methyl]acetamide, reference compound] | 1 (≈ 2.96 µM) | 1 (≈ 2.96 µM) | 0.5 (≈ 1.48 µM) | 16 to 32 (≈ 47.4 to 94.9 µM) | 16 (≈ 47.4 µM) | 2 (≈ 5.93 µM) | 2 (≈ 5.93 µM) | 64 (≈ 190 µM) | 128 (≈ 379 µM) | 2 to 8 | resistant |
| CC(=O)NC[C@H]1CN(c2ccc(N3CCC(n4ccc(C(F)(F)F)n4)C3)c(F)c2)C(=O)O1 (stereo partly drawn) [Ex. 26, N-((5S)-3-{3-fluoro-4-[3-(3-trifluoromethyl-pyrazol-1-yl)pyrrolidin-1-yl]-phenyl}-2-oxo-5-oxazolidinylmethyl)acetamide] | 2 (≈ 4.39 µM) | 0.5 (≈ 1.1 µM) | 1 (≈ 2.2 µM) | 16 (≈ 35.1 µM) | 1 (≈ 2.2 µM) | 1 (≈ 2.2 µM) | 2 (≈ 4.39 µM) | 2 (≈ 4.39 µM) | 1 (≈ 2.2 µM) | – | – |
| CC(=O)NC[C@H]1CN(c2ccc(N3CCC(n4nnc(-c5cccs5)n4)C3)c(F)c2)C(=O)O1 (stereo partly drawn) [Ex. 15, N-((5S)-3-{3-fluoro-4-[3-(5-thiophen-2-yl-tetrazol-2-yl)pyrrolidin-1-yl]-phenyl}-2-oxo-5-oxazolidinylmethyl)acetamide] | 0.5 (≈ 1.06 µM) | 0.125 (≈ 0.265 µM) | 0.25 (≈ 0.53 µM) | 4 (≈ 8.48 µM) | 8 (≈ 17 µM) | 0.5 (≈ 1.06 µM) | 2 (≈ 4.24 µM) | 8 (≈ 17 µM) | – | – | – |
| CC(=O)NC[C@H]1CN(c2ccc(N3CCC(n4cc([N+](=O)[O-])cn4)C3)c(F)c2)C(=O)O1 (stereo partly drawn) [Ex. 9, N-((5S)-3-{3-fluoro-4-[3-(4-nitropyrazol)pyrrolidinyl]-phenyl}-2-oxo-5-oxazolidinylmethyl)acetamide] | 1 (≈ 2.31 µM) | 0.25 (≈ 0.578 µM) | 1 (≈ 2.31 µM) | 8 (≈ 18.5 µM) | 2 (≈ 4.63 µM) | 0.5 (≈ 1.16 µM) | 1 (≈ 2.31 µM) | 4 (≈ 9.25 µM) | 1 (≈ 2.31 µM) | – | – |
